What follows are compounds tested against T1, TbrPDEB1 (Trypanosoma brucei, UniProt Q8WQX9) (assay: TbrPDEB1 catalytic domain phosphodiesterase activity assay (PDELight HTS cAMP kit)). Conditions: single point assay at 10 μM inhibitor.
T1 construct: The TbrPDEB1 catalytic domain phosphodiesterase activity assays were conducted based on a method reported by Sijm et al
T1 sequence (Q8WQX9 565-918 limits assumed): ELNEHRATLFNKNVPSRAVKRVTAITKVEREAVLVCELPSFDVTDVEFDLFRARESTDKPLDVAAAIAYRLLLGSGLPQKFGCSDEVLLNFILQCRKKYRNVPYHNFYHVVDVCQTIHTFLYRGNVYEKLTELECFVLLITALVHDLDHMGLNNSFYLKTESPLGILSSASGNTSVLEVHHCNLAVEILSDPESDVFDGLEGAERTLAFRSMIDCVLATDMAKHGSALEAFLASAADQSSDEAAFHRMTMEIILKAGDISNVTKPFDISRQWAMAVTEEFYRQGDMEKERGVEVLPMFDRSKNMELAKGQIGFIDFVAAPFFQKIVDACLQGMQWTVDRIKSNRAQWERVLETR
Assay type: biochemical
Procedure: The TbrPDEB1 catalytic domain phosphodiesterase activity assays were conducted based on a method reported by Sijm et al. ([2019]) with minor adaptations (Sijm et al., [2019]). The PDELight™ HTS cAMP phosphodiesterase Kit (Lonza, Walkersville, USA) was performed at 25°C in non-binding, low volume 384-well plates (Corning, Kennebunk, ME, USA). […] Single concentration measurements were made at 10 μM inhibitor concentration (triplo measurements/assay, n = 2). Dose-response curves were made in the range 100 μM−10 pM (triplo measurements/assay, n = 3). Compounds were diluted in DMSO (final in-test concentration 1%). Inhibitor dilutions (2.5 μL) were transferred to the 384-well plates, 2.5 μL of PDE in stimulation buffer was added and mixed, 5 μL of cAMP (at 2 × Km up to 20 μM) added and the assay mixture was incubated for 20 min at 300 rpm. […] Then, 5 μL of Lonza Detection reagent (diluted to 80% with reaction buffer) was added and the reaction incubated for 10 min at 300 rpm. Luminescence was read with a Victor3 luminometer using a 0.1 s/well program.
The Ki values of the inhibitors analyzed are represented as the mean of at least three independent experiments with the associated standard error of the mean (S.E.M.).

TbrPDEB1 (% inh.)	Structure (SMILES)
No inhibition	COc1ccc(C2=NN(C(C)C)C(=O)[C@@H]3CC=CC[C@H]23)cc1Oc1ncccc1C(=O)NCc1ccco1 (relative stereo) [3t, N-(Furan-2-ylmethyl)-2-(5-(cis-3-isopropyl-4-oxo-3,4,4a,5,8,8a-hexahydrophthalazin-1-yl)-2-methoxyphenoxy)nicotinamide]
No inhibition	COc1ccc(C2=NN(C(C)C)C(=O)[C@@H]3CC=CC[C@H]23)cc1Oc1cc(C#N)ccn1 (relative stereo) [3b, 2-(5-(cis-3-Isopropyl-4-oxo-3,4,4a,5,8,8a-hexahydrophthalazin-1-yl)-2-methoxyphenoxy)isonicotinonitrile]
No inhibition	COc1ccc(C2=NN(C(C)C)C(=O)[C@@H]3CC=CC[C@H]23)cc1Oc1ncccc1C(=O)O (relative stereo) [3e, 2-(5-(cis-3-Isopropyl-4-oxo-3,4,4a,5,8,8a-hexahydrophthalazin-1-yl)-2-methoxyphenoxy)nicotinic acid]
No inhibition	CCCCNC(=O)c1ccnc(Oc2cc(C3=NN(C(C)C)C(=O)[C@@H]4CC=CC[C@H]34)ccc2OC)c1 (relative stereo) [3q, N-Butyl-2-(5-(cis-3-isopropyl-4-oxo-3,4,4a,5,8,8a-hexahydrophthalazin-1-yl)-2-methoxyphenoxy)isonicotinamide]
No inhibition	COc1ccc(C2=NN(C(C)C)C(=O)[C@@H]3CC=CC[C@H]23)cc1Oc1ccc(C(=O)NCc2ccco2)cn1 (relative stereo) [3v, N-(Furan-2-ylmethyl)-6-(5-(cis-3-isopropyl-4-oxo-3,4,4a,5,8,8a-hexahydrophthalazin-1-yl)-2-methoxyphenoxy)nicotinamide]
No inhibition	COC(=O)c1cccnc1Oc1cc(C2=NN(C(C)C)C(=O)[C@@H]3CC=CC[C@H]23)ccc1OC (relative stereo) [3a, Methyl 2-(5-(cis-3-isopropyl-4-oxo-3,4,4a,5,8,8a-hexahydrophthalazin-1-yl)-2-methoxyphenoxy)nicotinate]
No inhibition	COc1ccc(C2=NN(C(C)C)C(=O)[C@H]3CC=CC[C@@H]23)cc1Oc1nccc2sccc12 (relative stereo) [2j, cis-2-Isopropyl-4-(4-methoxy-3-(thieno[3,2-c]pyridin-4-yloxy)phenyl)-4a,5,8,8a-tetrahydrophthalazin-1(2H)-one]
No inhibition	CCCCNC(=O)c1ccc(Oc2cc(C3=NN(C(C)C)C(=O)[C@@H]4CC=CC[C@H]34)ccc2OC)nc1 (relative stereo) [3r, N-Butyl-6-(5-(cis-3-isopropyl-4-oxo-3,4,4a,5,8,8a-hexahydrophthalazin-1-yl)-2-methoxyphenoxy)nicotinamide]
No inhibition	COc1ccc(C2=NN(C(C)C)C(=O)[C@@H]3CC=CC[C@H]23)cc1Oc1cc(C(N)=O)ccn1 (relative stereo) [3j, 2-(5-(cis-3-Isopropyl-4-oxo-3,4,4a,5,8,8a-hexahydrophthalazin-1-yl)-2-methoxyphenoxy)isonicotinamide]
No inhibition	COc1ccc(C2=NN(C(C)C)C(=O)[C@@H]3CC=CC[C@H]23)cc1Oc1cc(C(=O)NCc2ccco2)ccn1 (relative stereo) [3u, N-(Furan-2-ylmethyl)-2-(5-(cis-3-isopropyl-4-oxo-3,4,4a,5,8,8a-hexahydrophthalazin-1-yl)-2-methoxyphenoxy)isonicotinamide]
No inhibition	COc1ccc(C2=NN(C(C)C)C(=O)[C@@H]3CC=CC[C@H]23)cc1Oc1ncccc1C(N)=O (relative stereo) [3i, 2-(5-(cis-3-Isopropyl-4-oxo-3,4,4a,5,8,8a-hexahydrophthalazin-1-yl)-2-methoxyphenoxy)nicotinamide]
No inhibition	COc1ccc(C2=NN(C(C)C)C(=O)[C@@H]3CC=CC[C@H]23)cc1Oc1cccc(C(=O)O)n1 (relative stereo) [3h, 6-(5-(cis-3-Isopropyl-4-oxo-3,4,4a,5,8,8a-hexahydrophthalazin-1-yl)-2-methoxyphenoxy)picolinic acid]
No inhibition	CCCCNC(=O)c1cccnc1Oc1cc(C2=NN(C(C)C)C(=O)[C@@H]3CC=CC[C@H]23)ccc1OC (relative stereo) [3p, N-Butyl-2-(5-(cis-3-isopropyl-4-oxo-3,4,4a,5,8,8a-hexahydrophthalazin-1-yl)-2-methoxyphenoxy)nicotinamide]
No inhibition	COc1ccc(C2=NN(C(C)C)C(=O)[C@H]3CC=CC[C@@H]23)cc1Oc1ncnc2sccc12 (relative stereo) [2k, cis-2-Isopropyl-4-(4-methoxy-3-(thieno[2,3-d]pyrimidin-4-yloxy)phenyl)-4a,5,8,8a-tetrahydrophthalazin-1(2H)-one]
No inhibition	COc1ccc(C2=NN(C(C)C)C(=O)[C@@H]3CC=CC[C@H]23)cc1Oc1ccc(C(N)=O)cn1 (relative stereo) [3k, 6-(5-(cis-3-Isopropyl-4-oxo-3,4,4a,5,8,8a-hexahydrophthalazin-1-yl)-2-methoxyphenoxy)nicotinamide]
No inhibition	COc1ccc(C2=NN(C(C)C)C(=O)[C@H]3CC=CC[C@@H]23)cc1Oc1nc2ccccc2s1 (relative stereo) [2p, cis-4-(3-(Benzo[d]thiazol-2-yloxy)-4-methoxyphenyl)-2-isopropyl-4a,5,8,8a-tetrahydrophthalazin-1(2H)-one]

Same assay, conditions: single point assay at 10 μM inhibitor; read-out: TbrPDEB1 (% inh.)

inhibition at 10 µM [%]	Structure (SMILES)
18 ± 9	COc1ccc(C2=NN(C(C)C)C(=O)[C@@H]3CC=CC[C@H]23)cc1Oc1cnc(C(N)=O)cn1 (relative stereo) [2e, 5-(5-(cis-3-Isopropyl-4-oxo-3,4,4a,5,8,8a-hexahydrophthalazin-1-yl)-2-methoxyphenoxy)pyrazine-2-carboxamide]
5 ± 1	COc1ccc(C2=NN(C(C)C)C(=O)[C@@H]3CC=CC[C@H]23)cc1Oc1ccc(C(=O)NCC(N)=O)cn1 (relative stereo) [3n, N-(2-Amino-2-oxoethyl)-6-(5-(cis-3-isopropyl-4-oxo-3,4,4a,5,8,8a-hexahydrophthalazin-1-yl)-2-methoxyphenoxy)nicotinamide]
11 ± 6	COc1ccc(C2=NN(C(C)C)C(=O)[C@@H]3CC=CC[C@H]23)cc1Oc1ccc(C(=O)O)cn1 (relative stereo) [3g, 6-(5-(cis-3-Isopropyl-4-oxo-3,4,4a,5,8,8a-hexahydrophthalazin-1-yl)-2-methoxyphenoxy)nicotinic acid]
36 ± 6	COc1ccc(C2=NN(C(C)C)C(=O)[C@@H]3CC=CC[C@H]23)cc1Oc1cccc(C#N)n1 (relative stereo) [3d, 6-(5-(cis-3-Isopropyl-4-oxo-3,4,4a,5,8,8a-hexahydrophthalazin-1-yl)-2-methoxyphenoxy)picolinonitrile]
40 ± 4	COc1ccc(C2=NN(C(C)C)C(=O)[C@H]3CC=CC[C@@H]23)cc1Oc1ncc(CN2CCOCC2)s1 (relative stereo) [2c, cis-2-Isopropyl-4-(4-methoxy-3-((5-(morpholinomethyl)thiazol-2-yl)oxy)phenyl)-4a,5,8,8a-tetrahydrophthalazin-1(2H)-one]
11	CCOC(=O)c1cnc(Oc2cc(C3=NN(C(C)C)C(=O)[C@@H]4CC=CC[C@H]34)ccc2OC)s1 (relative stereo) [2b, Ethyl 2-(5-(cis-3-isopropyl-4-oxo-3,4,4a,5,8,8a-hexahydrophthalazin-1-yl)-2-methoxyphenoxy)thiazole-5-carboxylate]
11 ± 8	COc1ccc(C2=NN(C(C)C)C(=O)[C@H]3CC=CC[C@@H]23)cc1Oc1cc(N2CCOCC2)ncn1 (relative stereo) [2f, cis-2-Isopropyl-4-(4-methoxy-3-((6-morpholinopyrimidin-4-yl)oxy)phenyl)-4a,5,8,8a-tetrahydrophthalazin-1(2H)-one]
27	COc1ccc(C2=NN(C(C)C)C(=O)[C@@H]3CC=CC[C@H]23)cc1Oc1cc(C(=O)NCC(N)=O)ccn1 (relative stereo) [3m, N-(2-Amino-2-oxoethyl)-2-(5-(cis-3-isopropyl-4-oxo-3,4,4a,5,8,8a-hexahydrophthalazin-1-yl)-2-methoxyphenoxy)isonicotinamide]
12 ± 3	COc1ccc(C2=NN(C(C)C)C(=O)[C@H]3CC=CC[C@@H]23)cc1Oc1nccs1 (relative stereo) [2a, cis-2-Isopropyl-4-(4-methoxy-3-(thiazol-2-yloxy)phenyl)-4a,5,8,8a-tetrahydrophthalazin-1(2H)-one]
40 ± 1	COc1ccc(C2=NN(C(C)C)C(=O)[C@@H]3CC=CC[C@H]23)cc1Oc1cccc(C(=O)NCC(N)=O)n1 (relative stereo) [3o, N-(2-Amino-2-oxoethyl)-6-(5-(cis-3-isopropyl-4-oxo-3,4,4a,5,8,8a-hexahydrophthalazin-1-yl)-2-methoxyphenoxy)picolinamide]

From article PMC7859335, “Discovery of Diaryl Ether Substituted Tetrahydrophthalazinones as TbrPDEB1 Inhibitors Following Structure-Based Virtual Screening” (Frontiers in Chemistry, 2021)
